Results reported in patent publication US20020013282A1, “CATIONIC AMPHIPILE COMPOSITIONS FOR INTERACELLUAR DELIVERY OF THERAPEUTIC MOLECULES” (priority 1995, published 2002).

Legend:
[1] = tested on: lungs of balb/c mice
Protocol: This assay was used to assess the ability of the cationic amphiphiles of the invention to transfect cells in vivo from live specimens. In the assay, the lungs of balb/c mice were instilled intra-nasally (the procedure can also be performed trans-tracheally) with 100 μl of cationic amphiphile: DNA complex, which was allowed to form during a 15-minute period prior to administration according to the following procedure. The amphiphile (premixed with co-lipid, see below) was hydrated in water for 10 minutes, a period sufficient to yield a suspension at twice the final concentration required. This was vortexed for two minutes and aliquoted to provide 55 microliter quantities for each mouse to be instilled. Similarly, DNA encoding the reporter (CAT) gene was diluted with water to a concentration twice the required final concentration, and then aliquoted at 55 microliters for each mouse to be instilled. The lipid was gently combined with the DNA (in a polystyrene tube), and the complex allowed to form for 15 minutes before the mice were instilled therewith.
The plasmid used (pCMVHI-CAT, see Example 4) provides an encoding DNA for chloramphenicol transferase enzyme. Specifics on the amphiphile: DNA complexes are provided below.
Two days following transfection, mice were sacrificed, and the lungs and trachea removed, weighed, and homogenized in a buffer solution (250 mM Tris, pH 7.8, 5 mM EDTA). The homogenate was clarified by centrifugation, and the deacetylases therein were inactivated by heat treatment at 70° C. for 10 minutes. Lysate was incubated overnight with acetyl coenzyme A and C^14-chloramphenicol. CAT enzyme activity was then visualized by thin layer chromatography (“TLC”) following an ethyl acetate extraction.
The presence of the enzyme CAT will cause an acetyl group to be transferred from acetylcoenzyme A to C^14-chloramphenicol. The acetylated/radiolabeled chloramphenicol migrates faster on a TLC plate and thus its presence can be detected.
With respect to the comparison provided by FIG. 10, the following conditions are of note. The transfection solution for spermidine cholesterol carbamate contained 6 mM DNA measured as concentration of nucleotide, and 1.5 mM of cationic amphiphile. […] For transfection with DC-chol, the molar ratio of DC-chol to DOPE was 3:2, and the concentrations of cationic amphiphile and of DNA (as nucleotide) were 1.3 mM and 0.9 mM, respectively. For transfection with DMRIE, the molar ratio of DMRIE to DOPE was 1:1 and the concentrations of cationic amphiphile and of DNA were 1.7 mM and 1.2 mM, respectively.
Additional experiments were performed to compare in vivo the transfection efficiency of cationic amphiphiles depicted in FIGS. 1, 5 and 7. […] The compounds were administered intra-nasally using between 12 and 15 mice per compound. As in part A above, ng CAT activity was measured per 100 mg of tissue. […] Construction of pCF1/CAT and pCF2/CAT is described below in Example 4.
The in vivo data reported in FIGS. 13, 14 and 15 were compiled generally as follows. As aforementioned, FIGS. 10 and 11 report data from the complete in vivo optimization of amphiphile No. 53. Amphiphile No. 67 was subjected to a similar partial optimization. With respect to all of the other cationic amphiphiles reported on, and taking advantage of numerous structural similarities, optimized compositions for in vivo testing were extrapolated from in vitro results.

[2] = tested on: CFT-1 cell line (human cystic fibrosis bronchial epithelial cells); assay: Cell transfection assay (β-galactosidase expression from pCMVβ); assay type: cell-based; details: amphiphile:DOPE 1:1, CFT-1 cells
Protocol: Separate 3.35 μmole samples of spermidine cholesterol carbamate (amphiphile No. 53) and the neutral lipid dioleoylphosphatidylethanolamine (“DOPE”) were each dissolved in chloroform as stock preparations. Following combination of the solutions, a thin film was produced by removing chloroform from the mixture by evaporation under reduced pressure (20 mm Hg). The film was further dried under vacuum (1 mm Hg) for 24 hours.
The resulting suspension was then diluted with 4 ml of water to yield a solution that is 670 μM in cationic amphiphile and 670 μM in neutral colipid.
For preparation of the transfecting solution, DNA encoding for β- galactosidase (pCMVβ, ClonTech., Palo Alto, Calif.) was dissolved in OptiMEM culture medium (Gibco/BRL No. 31885-013).
The resulting 335 μM solutions were then serially diluted 7 times to generate 8 separate amphiphile-containing solutions having concentrations ranging from 335 μM to 2.63 μM, with each resultant solution having a volume of 165 μl. Thus, 64 solutions were prepared in all, there being 8 wells each of 8 different concentrations of amphiphile/DOPE. […]

[3] = tested on: BALB/c mouse; assay: Intravenous delivery of CAT reporter transgene, organ targeting (lung, heart); assay type: in vivo
Protocol: The reporter plasmid pCF-1 CAT (Example 4) was used and was purified to minimize endotoxin (<1 EU/mg pDNA), and also chromosomal DNA contamination (<2%). Amphiphile No. 53 (1:1 with DOPE)/DNA complex was prepared according to the procedures of Example 3. The amphiphile was provided as the free base, the plasmid was prepared as a sodium salt in water, and the DOPE was provided in zwitterionic form.
The animal model was the BALB/c mouse. Females 6-8 weeks old weighing 16-18 g were injected intravenously using the tail vein, using 5 animals per group. The volume of lipid: pDNA complex used was 100 μl in all experiments. Unless noted otherwise, mice were sacrificed 48 h following administration of the complex. Organs were frozen immediately on dry ice to store for subsequent analysis.
Expression of chloramphenicol acetyl transferase (CAT) was quantitated using a radiochemical assay for CAT enzymatic activity. Organs were weighed and homogenized on ice in a lysis buffer containing protease inhibitors. The lysate was freeze-thawed 3X, centrifuged, and heated to 65° C. to inactivate deacetylases before adding it to a reaction mixture containing ^14C-chloramphenicol. […] Spots corresponding to the acylated reaction products were quantitated (Betagen) and converted to ng CAT activity using authentic CAT standards. […]

[4] = Zeta potential of amphiphile/DNA complex; assay type: physicochemical; details: 1:1 with DOPE
Protocol: Zeta potentials of the samples can be measured (using typically 5 measurements per sample) employing a Malvern Zetasizer 4 (Malvern Instruments, Southborough, Mass.) and a zeta cell (AZ-104 cell, Malvern Instruments Co.). Dried lipid films containing the cationic lipid and DOPE are hydrated in distilled water (dH2O). DNA typically should be diluted to a concentration of about 300 μM in dH2O. The DNA solution (1.5 mL) can then be added to an equal volume of cationic lipid vesicles and incubated at room temperature for 10 min. Enough NaCl (for example, 4 mM stock) may be added to result in a final concentration of 1 mM NaCl. If necessary, the sample can be diluted further with 1 mM NaCl (to maintain a photomultiplier signal below 4000 counts per second), and distilled water can be used in place of the NaCl solutions.

[5] = tested on: Immortalized human cystic fibrosis airway cells (CFT-1); assay: SPQ assay of cAMP-stimulated Cl− channel activity after transfection with pCMV-CFTR; assay type: cell-based; details: amphiphile:DOPE 1:1, 10.5 μmolar each, 30 μmolar pCMV-CFTR; 48 hours after transfection
Protocol: Immortalized human cystic fibrosis airway cells (CFT-1, as above) were used.
In preparation for the assay, the cells were grown on glass coverslips until approximately 60% confluent. The cells were then transfected with a complex of spermidine cholesterol carbamate: DOPE (1:1) and a plasmid(pCMV-CFTR) containing a cDNA that encodes wild type human CFTR. pCMV-CFTR plasmid is a construct containing the encoding sequence for CFTR and the following regulatory elements, a CMV promoter and enhancer, and an SV40 polyadenylation signal. Additional constructs suitable for the practice of this example include pMT-CFTR, Cheng et al., Cell. 63, 827-834 (1990). The complex used was 10.5 μmolar of spermidine cholesterol carbamate (also of DOPE) and 30 μmolar of pCMV-CFTR based on nucleotide.
48 hours after amphiphile-mediated transfection, cells were tested for cAMP-stimulated Cl^−channel activity using the 6methoxy-N-(3-sulfopropyl)quinolinium (“SPQ”) assay. […] In the assay, cAMP-dependent Cl^−channel activity was assessed using “SPQ” (from Molecular Probes, Eugene, Oreg.), a halide-sensitive fluorophore. Increases in halide permeability results in a more rapid increase in SPQ fluorescence, and the rate of change (rather than the absolute change in fluorescence) is the important variable in assessing Cl^−permeability. […]

[6] = Transgene expression by protonation state of the amphiphile in transfecting composition with DOPE; details: for transgene expression activity: with DOPE
Protocol: With respect to amphiphile No. 67 (spermidine cholesterol carbamate), it has been observed that when providing this amphiphile for a transfecting composition with DOPE (itself provided as a zwitterion), transgene expression was best for the free base, but decreased if the amphiphile was prepared as an acetate salt. […] Under the circumstances described, the plasmid DNA provided for contacting with the amphiphile was prepared (without buffer) as a sodium salt in water.

[7] = Transacylation reaction of amphiphile with co-lipid DOPE on co-storage; assay type: physicochemical
Excerpt: Although heretofore unrecognized in the art, it has been determined also that certain co-lipids may react chemically with certain types of cationic amphiphiles under conditions of co-storage, there resulting new molecular species. Generation of such new species is believed to occur via mechanisms such as transacylation. In this regard, see FIG. 4 which depicts a transacylation reaction involving spermidine cholesterol carbamate(No.67) and DOPE, there resulting lyso PE species and multiple forms of particular acyl-cationic amphiphile (designated No. 80).
With respect to such reactions, the following remarks are of interest. […] It is expected that these phenomena would also apply to lyophilized amphiphile/DOPE preparations.
Accordingly, it is highly preferred to maintain such amphiphile/DOPE preparations at very cold temperatures, such as −70 degrees C.

[8] = 0.6 mM amphiphile, 0.6 or 1.2 mM DOPE, 3.6 mM plasmid DNA
[9] = 1.0-1.5 mM amphiphile, cholesterol 1:1, DNA 4.0-6.0 mM, pCMVHI-CAT, intra-nasal

With `CC(C)CCCC(C)C1CCC2C3CC=C4CC(OC(=O)NCCCNCCCCN)CCC4(C)C3CCC12C` (centres unmarked) [amphiphile No. 37, N^1-spermidine cholesteryl carbamate] the “improvement in reporter gene expression, free base form versus fully protonated hydrochloride salt” value [1, 8] was roughly 50 fold and the “reporter gene expression, free base form compared to fully protonated hydrochloride salt” value [1, 8] was “dramatically increased”.
In the case of `CC(C)CCCC(C)C1CCC2C3CC=C4CC(OC(=O)N(CCCN)CCCCN)CCC4(C)C3CCC12C` (centres unmarked) [amphiphile No. 53, N^4-spermidine cholesteryl carbamate], the “transfection efficiency (β-galactosidase expression) improved by a factor, relative to DMRIE:DOPE (1:1)” value [2] is reported as “about 5”, the “enhancement of in vivo transfection (ng CAT activity per 100 mg tissue) in relation to DMRIE and DC-Chol” value ([1]; 1.5 mM amphiphile, 1:1 DOPE, 6 mM DNA (pCMVHI-CAT), intra-nasal, 2 days) is reported as no less than 20 fold and the “transfection enhancement in relation to N^1-spermidine cholesteryl carbamate” value ([1]; 6 mM DNA (as nucleotide), 1.5 mM amphiphile, 1.5 mM co-lipid, procedures of Example 3 part B) is reported as “about 30 fold”. For the same compound, the “transfection efficiency (ng CAT/100 mg tissue) with cholesterol as co-lipid compared with DOPE as co-lipid” value [1, 9] was “less effective”, the “transfection with cholesterol as co-lipid compared with DC-Chol/DOPE” value [1, 9] was “substantially more effective” and the “toxicity to the target cells” value ([1]; about 0.75 mM amphiphile, 3.0 mM plasmid, versus 1.5 mM / 6 mM) was “less toxic”. For the same compound, the “organ distribution of CAT expression” value ([3]; amphiphile/DNA molar ratio less than about 0.5, DNA 0.9 mM) was “strongly weighted toward the lung”, the “organ distribution of CAT expression” value ([3]; amphiphile/DNA ratio 1.25, DNA 0.9 mM) was “substantial expression was found in the heart” and the “zeta potential of the complex” value ([4]; amphiphile/DNA molar ratio less than about 0.5) was “about −30 mV”. The “zeta potential of the complex” value ([4]; amphiphile/DNA ratio of 1.25) was “about +30 mV” and the “cells exhibiting measurable cAMP-stimulated Cl− channel activity” value [5] was “Approximately 60%”.
For `CC(C)CCCC(C)C1CCC2C3CC=C4CC(OC(=O)N(CCCN)CCCCNCCCN)CCC4(C)C3CCC12C` (centres unmarked) [amphiphile No. 67], the transgene expression ([6]; amphiphile as free base, with DOPE (zwitterion)) was “best”, the transgene expression activity ([6]; amphiphile as mono and di acetate salts) was “decreased step-wise” and the transgene expression activity ([6]; amphiphile as tri-acetate salt) was “minimal”. The “transacylation with DOPE” value ([7]; amphiphile and co-lipid dried down to a thin film from chloroform) was “transacylation also occurs”, the “transacylation with DOPE” value ([7]; amphiphile prepared as mono, di, or tri acetate salt) was “slow transacylations” and the “transacylation with DOPE” value ([7]; mixture of amphiphile and DOPE in chloroform solvent) was “does not appear to participate in such reactions”. For the same compound, the “transfection enhancement in relation to N^1-thermospermine cholesteryl carbamate and N^1-spermidine cholesteryl carbamate” value ([1]; 4 mM DNA (as nucleotide), 1 mM amphiphile, 2 mM co-lipid, procedures of Example 3 part B) was “at least 30 fold”.
